Results from patent US8785149B2, “In vitro cellular bioassay for neurotoxicity testing” (The Arizona Board of Regents on Behalf of the University of …, priority 2010, dated 2014).
“Also recorded” adds a separate entry of the source.

Experiments:
[1] = test system: wild-type (OreRC) neurons
[2] = test system: fascin-deficient singed-mutant neurons; assay: Primary neuron culture neurotoxicity screen, fascin-deficient neurons; conditions: 3 days in vitro; for beads-on-a-string (BOS) defect (intra-neurite nodules): singed (sn) mutant larval CNS neurons; for neurotoxic defects: 10 and 50 μM, phase-contrast morphology; for BOS effect in sn-mutant, fascin-deficient neurons relative to wild-type: at each dose; for BOS density versus dose: wild-type and sn-mutant neurons, randomly selected neurons
Text: Following this enzymatic treatment, the tissue is washed and then mechanically triturated in culture medium to dissociate it into single cells.

[3] = test system: cultured neurons with mutations in the Drosophila fragile X mental retardation 1 gene (dfmr1); assay type: cell-based
Text: In this case, the genetic control was designed (Michel et al. (2004). J. Neurosci., 23:5798-5809) to be identical in every possible way, except for the presence or absence of a normal dfmr1 gene.

SMILES | beads-on-a-string (BOS) defect (intra-neurite nodules) [2] | neurotoxic defects [2] | further results
CC(C)c1c(C(=O)Nc2ccccc2)c(-c2ccccc2)c(-c2ccc(F)cc2)n1CC[C@@H](O)C[C@@H](O)CC(=O)O [atorvastatin] | beads-on-a-string (BOS) defect; also recorded: induced |  | neurite outgrowth [1]: inhibition of neurite outgrowth
C[CH2][Hg][S]c1ccccc1C(=O)[O-].[Na+] [thimerosal] |  | overt neurotoxic defects | 
CC(=O)O[C@H]1C(=O)[C@@]2(C)[C@H]([C@H](OC(=O)c3ccccc3)[C@]3(O)C[C@H](OC(=O)[C@H](O)[C@@H](NC(=O)c4ccccc4)c4ccccc4)C(C)=C1C3(C)C)[C@]1(OC(C)=O)CO[C@@H]1C[C@@H]2O [paclitaxel] |  | overt neurotoxic defects | 
C[C@@H]1O[C@@H](O[C@H]2C[C@@H](O)[C@]3(CO)[C@H]4[C@H](O)C[C@]5(C)[C@@H](C6=CC(=O)OC6)CC[C@]5(O)[C@@H]4CC[C@]3(O)C2)[C@H](O)[C@H](O)[C@H]1O [ouabain] |  | overt neurotoxic defects | 
CC[C@H](C)C(=O)O[C@H]1C[C@H](O)C=C2C=C[C@H](C)[C@H](CC[C@@H](O)C[C@@H](O)CC(=O)O)[C@H]21 [pravastatin] | beads-on-a-string (BOS) defect; also recorded: induced |  | BOS effect in sn-mutant, fascin-deficient neurons relative to wild-type [2]: enhanced the sensitivity; BOS density versus dose [2]: increased with dose; severity of BOS defect in dfmr1-mutant neurons versus control neurons [3]: less severe BOS defect
COc1ccc(C[C@H]2NC[C@H](O)[C@H]2OC(C)=O)cc1 [anisomycin] |  | overt neurotoxic defects | 
CC[C@H](C)C(=O)O[C@H]1C[C@@H](C)C=C2C=C[C@H](C)[C@H](CC[C@@H]3C[C@@H](O)CC(=O)O3)[C@H]21 [lovastatin] | beads-on-a-string (BOS) defect; also recorded: induced |  | 
CC(C)c1nc(N(C)S(C)(=O)=O)nc(-c2ccc(F)cc2)c1/C=C/[C@@H](O)C[C@@H](O)CC(=O)O [rosuvastatin] | beads-on-a-string (BOS) defect; also recorded: induced |  | BOS effect in sn-mutant, fascin-deficient neurons relative to wild-type [2]: enhanced the sensitivity; BOS density versus dose [2]: increased with dose
C[C@@H]1C[C@@H]([C@H](O)CC2CC(=O)NC(=O)C2)C(=O)[C@@H](C)C1 [cycloheximide] |  | overt neurotoxic defects | 
